Data from US9226500B2, “Pesticidal compositions and processes related thereto” (Dow AgroSciences LLC, priority 2012, dated 2016).

Experiments:
[1] = system: Corn Earworm (Helicoverpa zea); experiment: Bioassay on Corn Earworm (CEW), 128-well diet tray assay; type: in vivo; conditions: Table 3, Assays Results Part 1
Experimental: (§1) Certain molecules disclosed in this document were tested against BAW, CEW and CL using procedures described in the following examples. In the reporting of the results, the “BAW & CEW & CL Rating Table” was used (See Table Section).
Bioassays on CEW (Helicoverpa zea)
Bioassays on CEW were conducted using a 128-well diet tray assay. One to five second instar CEW larvae were placed in each well (3 mL) of the diet tray that had been previously filled with 1 mL of artificial diet to which 50 μg/cm^2 of the test compound (dissolved in 50 μL of 90:10 acetone-water mixture) had been applied (to each of eight wells) and then allowed to dry. Trays were covered with a clear self-adhesive cover, and held at 25° C., 14:10 light-dark for five to seven days. Percent mortality was recorded for the larvae in each well; activity in the eight wells was then averaged. The results are indicated in the table entitled “Table 3: Assay Results Part 1” (See Table Section).

[2] = system: Green Peach Aphid (Myzus persicae); experiment: Bioassay on Green Peach Aphid (GPA), foliar spray on cabbage seedlings; type: in vivo
Experimental: Certain molecules disclosed in this document were tested against GPA using procedures described in the following example. In the reporting of the results, the “GPA Rating Table” was used (See Table Section). Cabbage seedlings grown in 3-inch pots, with 2-3 small (3-5 cm) true leaves, were used as test substrate. The seedlings were infested with 20-50 GPA (wingless adult and nymph stages) one day prior to chemical application. Four pots with individual seedlings were used for each treatment. Test compounds (2 mg) were dissolved in 2 mL of acetone/MeOH (1:1) solvent, forming stock solutions of 1000 ppm test compound. The stock solutions were diluted 5× with 0.025% Tween 20 in water to obtain the solution at 200 ppm test compound. A hand-held aspirator-type sprayer was used for spraying a solution to both sides of […] leaves until runoff. Reference plants (solvent check) were sprayed with the diluent only containing 20% by volume of acetone/MeOH (1:1) solvent. Treated plants were held in a holding room for three days at approximately 25° C. and ambient relative humidity (RH) prior to grading. Evaluation was conducted by counting the number of live aphids per plant under a microscope. Percent Control was measured by using Abbott's correction formula (W. S. Abbott, “A Method of Computing the Effectiveness of an Insecticide” J. Econ. Entomol. 18 (1925), pp. 265-267) as follows. Corrected % Control=100*(X−Y)/X • where • X=No. of live aphids on solvent check plants and • Y=No. of live aphids on treated plants The results are indicated in the tables entitled “Table 3: Assay Results Part 1” and “Table 4: Assay Results Part 2” (See Table Section).

[3] = system: Beet Armyworm (Spodoptera exigua); experiment: Bioassay on Beet Armyworm (BAW), 128-well diet tray assay; type: in vivo; conditions: Spodoptera exigua, 168 h; percent mortality of second instar larvae, 50 μg/cm^2 on artificial diet, five to seven days, 25° C.; read-out: BAW Rating
[4] = system: Cabbage Looper (Trichoplusia ni); experiment: Bioassay on Cabbage Looper (CL), 128-well diet tray assay; type: in vivo; conditions: 168 h, percent mortality of second instar larvae, 50 μg/cm^2 on artificial diet, five to seven days, 25° C., read-out: CL Rating
Experimental: as §1
Bioassays on CL (Trichoplusia ni)
Bioassays on CL were conducted using a 128-well diet tray assay. One to five second instar CL larvae were placed in each well (3 mL) of the diet tray that had been previously filled with 1 mL of artificial diet to which 50 μg/cm^2 of the test compound (dissolved in 50 μL of 90:10 acetone-water mixture) had been applied (to each of eight wells) and then allowed to dry. Trays were covered with a clear self-adhesive cover, and held at 25° C., 14:10 light-dark for five to seven days. Percent mortality was recorded for the larvae in each well; activity in the eight wells was then averaged.
“Table 4: Assay Results Part 2” (See Table Section).

[5] = system: Beet Armyworm (Spodoptera exigua); experiment: Bioassay on Beet Armyworm (BAW), 128-well diet tray assay; type: in vivo; conditions: Table 5, Performed at 12.5 μg/cm^2, read-out: BAW Rating
[6] = system: Cabbage Looper (Trichoplusia ni); experiment: Bioassay on Cabbage Looper (CL), 128-well diet tray assay; type: in vivo; conditions: Table 5, Performed at 12.5 μg/cm^2, read-out: CL Rating

NC(=O)c1ccc(/C=C/C(c2cc(Cl)cc(Cl)c2)C(F)(F)F)cc1 (stereo not drawn) [AC2]
melting point: 110 to 112 °C

O=C(NCc1ccc(/C=C/C(c2cc(Cl)c(Cl)c(Cl)c2)C(F)(F)F)cc1C(F)(F)F)c1cccnc1 (stereo not drawn) [CC23]
CEW Rating [1]: A (50-100)
GPA Rating ([2]; Table 3, Assays Results Part 1): B (More than 0-Less than 80)

O=C(NCc1ccc(/C=C/C(c2cc(Cl)c(Cl)c(Cl)c2)C(F)(F)F)cc1Cl)Oc1ccccc1Cl (stereo not drawn) [CC40]
CEW Rating [1]: A (50-100)

C[C@@H](NC(=O)c1ccc(/C=C/[C@H](c2cc(Cl)c(Cl)c(Cl)c2)C(F)(F)F)cc1C(F)(F)F)C(=O)NCC(F)(F)F [Compound F20A, N—((R)-1-Oxo-1-((2,2,2-trifluoroethyl)amino)propan-2-yl)-4-((E)-4,4,4-trifluoro-3-(3,4,5-trichlorophenyl)but-1-en-1-yl)-2-(trifluoromethyl)benzamide]
pest or weed control at 50 µg/cm2, 50 µg/cm2 [3]: 50 to 100%
pest or weed control at 50 µg/cm2, 50 µg/cm2 [4]: 50 to 100%
pest or weed control at 200 ppm ([2]; Myzus persicae, 72 h, corrected % control (Abbott), 200 ppm foliar spray on cabbage seedlings, three days, read-out: GPA Rating): 80 to 100%

O=C(CNC(=O)c1ccc(/C=C/C(c2cc(Br)cc(Br)c2)C(F)(F)F)cc1Br)NCC(F)(F)F (stereo not drawn) [Compound P1969]
pest or weed control at 12.5 µg/cm2, 12.5 µg/cm2 [5]: 50 to 100%
pest or weed control at 12.5 µg/cm2, 12.5 µg/cm2 [6]: 50 to 100%
